Data from US20250129078A1, “ERBB2 INHIBITORS” (Cogent Biosciences, Inc., priority 2023, published 2025).

Key:
ErbB2 V777L = ErbB2 V777L (Homo sapiens (Human), UniProt P04626, V777L); assay: ErbB enzyme assay (CisBio HTRF-KinEASE-TK), ErbB2 V777L; type: biochemical
Method in brief: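 HTRF KinEASE-TK tyrosine-kinase read-out of substrate phosphorylation after a final 1 h at ambient temperature, from the 655/620 nm emission ratio.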

EGFR WT = EGFR WT (Homo sapiens (Human), UniProt P00533); assay: ErbB enzyme assay (CisBio HTRF-KinEASE-TK), EGFR WT; type: biochemical; conditions: ATP at Km (25 μM), 1 h incubation
Chain of EGFR WT (P00533 25-1210): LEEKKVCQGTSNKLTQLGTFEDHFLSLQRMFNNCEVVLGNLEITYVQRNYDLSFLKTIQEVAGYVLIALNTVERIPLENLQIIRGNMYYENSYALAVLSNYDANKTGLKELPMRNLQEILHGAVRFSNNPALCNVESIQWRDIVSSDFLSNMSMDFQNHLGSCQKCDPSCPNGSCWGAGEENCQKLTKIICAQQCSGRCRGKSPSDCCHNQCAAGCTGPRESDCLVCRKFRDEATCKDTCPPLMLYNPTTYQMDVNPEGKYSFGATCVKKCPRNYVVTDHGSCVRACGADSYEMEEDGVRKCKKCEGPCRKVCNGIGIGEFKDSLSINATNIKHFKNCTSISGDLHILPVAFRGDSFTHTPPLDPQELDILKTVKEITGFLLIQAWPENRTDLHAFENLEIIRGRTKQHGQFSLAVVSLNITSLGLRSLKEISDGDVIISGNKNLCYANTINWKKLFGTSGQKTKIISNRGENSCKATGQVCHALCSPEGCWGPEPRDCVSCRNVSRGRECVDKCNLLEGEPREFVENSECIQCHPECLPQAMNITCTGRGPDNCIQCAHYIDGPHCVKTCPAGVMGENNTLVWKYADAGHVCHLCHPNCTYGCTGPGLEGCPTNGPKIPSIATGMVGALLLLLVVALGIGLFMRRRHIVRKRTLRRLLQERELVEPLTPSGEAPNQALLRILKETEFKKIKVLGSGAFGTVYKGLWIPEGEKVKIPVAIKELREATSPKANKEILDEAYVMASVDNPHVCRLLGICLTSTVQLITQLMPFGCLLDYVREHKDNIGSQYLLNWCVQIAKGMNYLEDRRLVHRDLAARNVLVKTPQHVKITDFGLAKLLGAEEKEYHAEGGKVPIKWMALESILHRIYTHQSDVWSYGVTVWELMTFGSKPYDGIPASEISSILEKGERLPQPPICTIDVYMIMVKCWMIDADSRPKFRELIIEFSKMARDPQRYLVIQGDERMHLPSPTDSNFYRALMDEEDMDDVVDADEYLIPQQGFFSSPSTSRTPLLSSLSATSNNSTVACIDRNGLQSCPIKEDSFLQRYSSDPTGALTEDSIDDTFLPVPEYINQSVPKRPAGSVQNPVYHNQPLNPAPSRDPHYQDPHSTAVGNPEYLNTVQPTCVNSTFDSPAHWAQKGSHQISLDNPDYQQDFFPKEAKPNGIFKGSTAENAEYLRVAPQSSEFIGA
Method in brief: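 HTRF KinEASE-TK kinase reactions ran 1 h at ambient temperature with three-fold serial compound dilutions, then were quenched with Sa-XL665 and TK-Ab-Cryptate. After 1 h more, 655/620 nm time-resolved fluorescence gave percent of control; a 4-parameter logistic fit defined IC50 at 50 POC.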

Chain of ErbB2 V777L (P04626 23-1255 V777L): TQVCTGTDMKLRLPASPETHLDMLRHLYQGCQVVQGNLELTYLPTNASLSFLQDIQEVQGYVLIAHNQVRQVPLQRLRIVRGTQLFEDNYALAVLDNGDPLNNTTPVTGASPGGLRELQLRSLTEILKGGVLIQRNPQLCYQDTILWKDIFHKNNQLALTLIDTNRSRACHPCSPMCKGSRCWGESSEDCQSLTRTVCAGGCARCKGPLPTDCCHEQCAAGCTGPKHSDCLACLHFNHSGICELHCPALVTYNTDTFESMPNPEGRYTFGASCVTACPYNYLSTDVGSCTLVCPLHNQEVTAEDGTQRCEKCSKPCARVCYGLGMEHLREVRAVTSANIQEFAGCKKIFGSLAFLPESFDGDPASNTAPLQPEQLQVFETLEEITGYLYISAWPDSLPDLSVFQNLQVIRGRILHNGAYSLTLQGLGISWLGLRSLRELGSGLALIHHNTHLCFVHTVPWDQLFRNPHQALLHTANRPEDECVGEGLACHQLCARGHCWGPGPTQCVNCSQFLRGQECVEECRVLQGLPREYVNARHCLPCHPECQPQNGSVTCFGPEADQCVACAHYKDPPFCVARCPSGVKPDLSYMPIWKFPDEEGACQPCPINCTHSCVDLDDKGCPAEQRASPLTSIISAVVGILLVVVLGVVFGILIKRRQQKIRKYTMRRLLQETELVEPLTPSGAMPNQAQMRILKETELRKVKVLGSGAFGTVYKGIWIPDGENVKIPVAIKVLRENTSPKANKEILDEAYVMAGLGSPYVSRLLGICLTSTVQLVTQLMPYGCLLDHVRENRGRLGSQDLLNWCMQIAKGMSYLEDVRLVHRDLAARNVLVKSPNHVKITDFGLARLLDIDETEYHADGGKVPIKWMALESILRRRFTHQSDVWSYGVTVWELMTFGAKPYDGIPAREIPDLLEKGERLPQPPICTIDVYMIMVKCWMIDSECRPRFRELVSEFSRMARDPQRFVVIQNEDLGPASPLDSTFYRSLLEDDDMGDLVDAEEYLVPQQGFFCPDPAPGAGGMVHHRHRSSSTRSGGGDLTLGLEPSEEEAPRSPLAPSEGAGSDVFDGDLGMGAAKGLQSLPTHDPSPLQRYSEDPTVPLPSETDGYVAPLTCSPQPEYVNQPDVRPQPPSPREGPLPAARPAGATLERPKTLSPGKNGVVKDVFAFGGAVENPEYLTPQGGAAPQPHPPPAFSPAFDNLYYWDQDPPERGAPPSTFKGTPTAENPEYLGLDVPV

Row | IC50 (ErbB2 V777L) [nM] | IC50 (EGFR WT) [nM] | Compound
1 | 100 to 500 | 500 to 1000 | C=CC(=O)N1CCN(c2ncc3ncnc(Nc4ccc(Oc5ccc6c(c5)nnn6CC)c(C)c4)c3n2)CC1 [Compound 133, 1-(4-(8-((4-((1-ethyl-1H-benzo[d][1,2,3]triazol-5-yl)oxy)-3-methylphenyl)amino)pyrimido[5,4-d]pyrimidin-2-y1)piperazin-1-yl)prop-2-en-1-one]
2 | 100 to 500 | ≥ 1000 | C=CC(=O)N1CC2CN(c3ncc4ncnc(Nc5ccc(Oc6ccc7c(c6)nnn7C)c(C)c5)c4n3)CC2C1 (stereo not shown) [Compound 27, 1-(5-(8-((3-methyl-4-((1-methyl-1H-benzo[d][1,2,3]triazol-5-yl)oxy)phenyl)amino)pyrimido[5,4-d]pyrimidin-2-yl)hexahydropyrrolo[3,4-c]pyrrol-2(1H)-y1)prop-2-en-1-one]
3 | 100 to 500 | 100 to 500 | C=CC(=O)N(C)C1CN(c2ncc3ncnc(Nc4ccc(Oc5ccc6c(c5)nnn6C)c(C)c4F)c3n2)C1 [Compound 28, N-(1-(8-((2-fluoro-3-methyl-4-((1-methyl-1H-benzo[d][1,2,3]triazol-5-yl)oxy)phenyl)amino)pyrimido [5,4-d]pyrimidin-2-yl)azetidin-3-yl)-N-methylacrylamide]
4 | 100 to 500 | 100 to 500 | C=CC(=O)N1CCN(c2ccc3ncnc(Nc4ccc(Oc5ccc6c(c5)nnn6C)c(C)c4F)c3n2)CC1(C)C [Compound 275, 1-(4-(4-((2-fluoro-3-methyl-4-((1-methyl-1H-benzo[d][1,2,3]triazol-5-yl)oxy)phenyl)amino)pyrido[3,2-d]pyrimidin-6-yl)-2,2-dimethylpiperazin-1-yl)prop-2-en-1-one]
5 | 50 to 100 | 100 to 500 | C=CC(=O)N(C)[C@@H]1CCCN(c2ncc3ncnc(Nc4ccc(Oc5ccc6c(c5)nnn6C)c(C)c4)c3n2)C1 [Compound 129, (R)-N-methyl-N-(1-(8-((3-methyl-4-((1-methyl-1H-benzo[d][1,2,3]triazol-5-yl)oxy)phenyl)amino)pyrimido[5,4-d]pyrimidin-2-y1)piperidin-3-yl)acrylamide]
6 | 50 to 100 | 100 to 500 | C=CC(=O)N1C2CCCC1CC(c1ccc3ncnc(Nc4cc(C)c(Oc5ccc6c(c5)nnn6C)cc4OC)c3n1)C2 (stereo not shown) [Compound 401, 1-(3-(4-((2-methoxy-5-methyl-4-((1-methyl-1H-benzo[d][1,2,3]triazol-5-yl)oxy)phenyl)amino)pyrido[3,2-d]pyrimidin-6-yl)-9-azabicyclo[3.3.1]nonan-9-yl)prop-2-en-1-one trifluoroacetatexc]
7 | 50 to 100 | 100 to 500 | C=CC(=O)N[C@]1(C)CCN(c2ccc3ncnc(Nc4ccc(Oc5ccc6c(c5)nnn6C)c(C)c4F)c3n2)C1 [Compound 270, (R)-N-(1-(4-((2-fluoro-3-methyl-4-((1-methyl-1H-benzo[d][1,2,3]triazol-5-yl)oxy)phenyl)amino)pyrido[3,2-d]pyrimidin-6-yl)-3-methylpyrrolidin-3-yl)acrylamide]
8 | 100 to 500 | 100 to 500 | C=CC(=O)N1CCN(c2ccc3ncnc(Nc4ccc(Oc5ccc6c(c5)nnn6C)c(C)c4)c3c2F)CC1 [Compound 104, 1-(4-(5-fluoro-4-((3-methyl-4-((1-methyl-1H-benzo[d][1,2,3]triazol-5-yl)oxy)phenyl)amino)quinazolin-6-yl)piperazin-1-yl)prop-2-en-1-one]
9 | 100 to 500 | 500 to 1000 | C=CC(=O)N(C)C1CCN(c2ncc3ncnc(Nc4ccc(Oc5ccc6c(c5)nnn6C)c(C)c4F)c3n2)C1 (stereo not shown) [Compound 9, N-(1-(8-((2-fluoro-3-methyl-4-((1-methyl-1H-benzo[d][1,2,3]triazol-5-yl)oxy)phenyl)amino)pyrimido [5,4-d]pyrimidin-2-yl)pyrrolidin-3-y1)-N-methylacrylamide]
10 | 50 to 100 | 50 to 100 | C=CC(=O)N1CCN(c2ncc3ncnc(Nc4ccc(Oc5cc6nnn(C)c6c(C)c5F)c(C)c4F)c3n2)C[C@H]1C [Compound 180, (R)-1-(4-(8-((2-fluoro-4-((6-fluoro-1,7-dimethyl-1H-benzo[d][1,2,3]triazol-5-yl)oxy)-3-methylphenyl)amino)pyrimido[5,4-d]pyrimidin-2-y1)-2-methylpiperazin-1-yl)prop-2-en-1-one]
11 | 100 to 500 | 500 to 1000 | C=CC(=O)N1CCCN(c2ccc3ncnc(Nc4ccc(Oc5ccc6c(c5)nnn6C)c(C)c4)c3n2)CC1 [Compound 308, 1-(4-(4-((3-methyl-4-((1-methyl-1H-benzo[d][1,2,3]triazol-5-yl)oxy)phenyl)amino)pyrido[3,2-d]pyrimidin-6-yl)-1,4-diazepan-1-yl)prop-2-en-1-one]
12 | 500 to 1000 | ≥ 1000 | C=CC(=O)N1CCN(c2ccc3ncnc(Nc4ccc(Oc5ccc6c(c5)nnn6C)c(C)c4)c3n2)CC[C@H]1C [Compound 356, (R)-1-(7-methyl-4-(4-((3-methyl-4-((1-methyl-1H-benzo[d][1,2,3]triazol-5-yl)oxy)phenyl)amino)pyrido[3,2-d]pyrimidin-6-yl)-1,4-diazepan-1-yl)prop-2-en-1-one]
13 | 50 to 100 | 100 to 500 | C=CC(=O)N(C)[C@H]1C[C@H](Oc2ncc3ncnc(Nc4ccc(Oc5cc(F)c6c(c5)ncn6C)c(C)c4)c3n2)C1 [Compound 386, N-((1r,3r)-3-((8-((4-((7-fluoro-1-methyl-1H-benzo[d]imidazol-5-yl)oxy)-3-methylphenyl)amino)pyrimido[5,4-d]pyrimidin-2-yl)oxy)cyclobutyl)-N-methylacrylamide]
14 | 50 to 100 | 100 to 500 | C=CC(=O)N1CCN(c2ncc3ncnc(Nc4ccc(Oc5ccc6c(c5)nnn6C)c(C)c4)c3n2)[C@@H](C)C1 [Compound 18, (S)-1-(3-methyl-4-(8-((3-methyl-4-((1-methyl-1H-benzo[d][1,2,3]triazol-5-yl)oxy)phenyl)amino)pyrimido[5,4-d]pyrimidin-2-yl)piperazin-1-yl)prop-2-en-1-one 2,2,2-trifluoroacetate]
15 | 100 to 500 | 500 to 1000 | C=CC(=O)N1CCN(c2ncc3ncnc(Nc4ccc(Oc5ccc6c(c5)nnn6C)c(C)c4)c3n2)[C@@H]2CC[C@H]21 [Compound 189, 1-((1R,6R)-5-(8-((3-methyl-4-((1-methyl-1H-benzo[d][1,2,3]triazol-5-yl)oxy)phenyl)amino)pyrimido[5,4-d]pyrimidin-2-y1)-2,5-diazabicyclo[4.2.0]octan-2-yl)prop-2-en-1-one]
16 | 100 to 500 | 100 to 500 | C=CC(=O)N1CCN(c2ccc3ncnc(Nc4ccc(Oc5ccc6c(c5)nnn6C)c(C)c4)c3n2)C[C@H]1CC [Compound 294, (R)-1-(2-ethyl-4-(4-((3-methyl-4-((1-methyl-1H-benzo[d][1,2,3]triazol-5-yl)oxy)phenyl)amino)pyrido[3,2-d]pyrimidin-6-yl)piperazin-1-yl)prop-2-en-1-one]
17 | 100 to 500 | 100 to 500 | C=CC(=O)N1CCN(c2ncc3ncnc(Nc4ccc(Oc5ccc6c(c5)nnn6C)c(C)c4F)c3c2F)CC1 [Compound 103, 1-(4-(5-fluoro-4-((2-fluoro-3-methyl-4-((1-methyl-1H-benzo[d][1,2,3]triazol-5-yl)oxy)phenyl)amino)pyrido[3,4-d]pyrimidin-6-yl)piperazin-1-yl)prop-2-en-1-one]
18 | 50 to 100 | 100 to 500 | C=CC(=O)N1CCN(c2ncc3ncnc(Nc4ccc(Oc5ccc6c(c5)ncn6C(F)F)c(C)c4F)c3n2)C[C@H]1C [Compound 148, (R)-1-(4-(8-((4-((1-(difluoromethyl)-1H-benzo[d]imidazol-5-yl)oxy)-2-fluoro-3-methylphenyl)amino)pyrimido[5,4-d]pyrimidin-2-yl)-2-methylpiperazin-1-yl)prop-2-en-1-one]
19 | 100 to 500 | ≥ 1000 | C=CC(=O)N1CCN(c2ccc3ncnc(Nc4ccc(Oc5ccc6c(c5)ncn6C(F)F)c(C)c4F)c3n2)C[C@@H]1C1CC1 [Compound 286, (S)-1-(2-cyclopropyl-4-(4-((4-((1-(difluoromethyl)-1H-benzo[d]imidazol-5-yl)oxy)-2-fluoro-3-methylphenyl)amino)pyrido[3,2-d]pyrimidin-6-yl)piperazin-1-yl)prop-2-en-1-one]
20 | 500 to 1000 | 100 to 500 | C=CC(=O)N1CCN(c2ccc3ncnc(Nc4ccc(Oc5ccc6c(c5)nnn6C(F)F)c(C)c4F)c3n2)C[C@H]1C [Compound 323, (R)-1-(4-(4-((4-((1-(difluoromethyl)-1H-benzo[d][1,2,3]triazol-5-yl)oxy)-2-fluoro-3-methylphenyl)amino)pyrido[3,2-d]pyrimidin-6-yl)-2-methylpiperazin-1-yl)prop-2-en-1-one]
21 | 100 to 500 | 100 to 500 | C=CC(=O)N1CCN(c2ncc3ncnc(Nc4c(OC)cc(Oc5ccc6c(c5)nnn6C)c(C)c4F)c3n2)CC1 [Compound 138, 1-(4-(8-((2-fluoro-6-methoxy-3-methyl-4-((1-methyl-1H-benzo[d][1,2,3]triazol-5-yl)oxy)phenyl)amino)pyrimido[5,4-d]pyrimidin-2-yl)piperazin-1-yl)prop-2-en-1-one]
22 | 100 to 500 | 500 to 1000 | C=CC(=O)N(C)CCN(C)c1ccc2ncnc(Nc3ccc(Oc4ccc5c(c4)nnn5C)c(C)c3)c2n1 [Compound 76, N-methyl-N-(2-(methyl(4-((3-methyl-4-((1-methyl-1H-benzo[d][1,2,3]triazol-5-yl)oxy)phenyl)amino)pyrido[3,2-d]pyrimidin-6-yl)amino)ethyl)acrylamide]
23 | 100 to 500 | ≥ 1000 | C/C=C/C(=O)N1CCN(c2ncc3ncnc(Nc4ccc(Oc5ccc6c(c5)nnn6C)c(C)c4)c3n2)CC1 [Compound 34, (E)-1-(4-(8-((3-methyl-4-((1-methyl-1H-benzo[d][1,2,3]triazol-5-yl)oxy)phenyl)amino)pyrimido [5,4-d]pyrimidin-2-yl)piperazin-1-yl)but-2-en-1-one]
